Experimental findings from the NIST ThermoML archive (doi:10.1016/j.tca.2012.10.024) are described below.

Molecules are shown by their SMILES. ± gives the expanded uncertainty stated by the source.

For data set [1] the following is noted: 101.33 kPa, Liquid, Pycnometric method.
Data set [2] in a line: refractive index (Na D-line) (dimensionless). The following applies: 101.33 kPa, Liquid, Standard Abbe refractometry.
Data set [3] is described as follows: relative permittivity at zero frequency (dimensionless). The conditions noted are these: 101.33 kPa, Liquid, Parallel plate capacitor.

Usually mass density stands for mass per unit of volume. For orientation: refractive index means a measure of how strongly the sample bends light. As for `COCCOCCOCCOCCOC` [2,5,8,11,14-pentaoxapentadecane], the mass density in data set [1] (293.15 K) is recorded as 1011.06 ± 1.4 kg/m3; in data set [1] (298.15 K) it was 1007.07 ± 1.4 kg/m3; in data set [1] (303.15 K) it was 1002.49 ± 1.4 kg/m3. The refractive index was determined as 1.4326 ± 0.0009 in data set [2] (293.15 K), 1.4306 ± 0.0009 in data set [2] (298.15 K) and 1.4286 ± 0.0009 in data set [2] (303.15 K). For the same compound, the “relative permittivity at zero frequency” value was determined as 7.939 ± 0.48 in data set [3] (293.15 K), 7.816 ± 0.47 in data set [3] (298.15 K) and 7.692 ± 0.46 in data set [3] (303.15 K).
`CCCCCCCC` [octane]: the refractive index amounted to 1.3976 ± 0.0008 in data set [2] (293.15 K), 1.3952 ± 0.0008 in data set [2] (298.15 K) and 1.3929 ± 0.0008 in data set [2] (303.15 K). Besides, the “relative permittivity at zero frequency” value is 1.968 ± 0.12 in data set [3] (293.15 K), 1.961 ± 0.12 in data set [3] (298.15 K) and 1.954 ± 0.12 in data set [3] (303.15 K).
On to `CCCCCO` [pentan-1-ol], for which the refractive index turned out to be 1.41 ± 0.0008 in data set [2] (293.15 K), 1.4082 ± 0.0008 in data set [2] (298.15 K) and 1.4061 ± 0.0008 in data set [2] (303.15 K). The results for the “relative permittivity at zero frequency” value in data set [3] (293.15 K), in data set [3] (298.15 K) and in data set [3] (303.15 K) were 15.739 ± 0.94, 15.158 ± 0.91 and 14.579 ± 0.88, respectively.
